Data as given in patent publication US7276491B2, “Anticoagulant and fibrinolytic therapy using p38 MAP kinase inhibitors” (Boehringer Ingelheim Pharmaceuticals, Inc., priority 2002, dated 2007).

Tested on: LPS-induced activation of coagulation, fibrinolysis and the vascular endothelium
Assay: LPS study: randomized, double-blind, placebo-controlled human endotoxemia experiment
Type: in vivo
[1] = healthy male volunteers, high dose (600 mg oral) 3 h before LPS 4 ng/kg i.v.

Cc1ccc(-n2nc(C(C)(C)C)cc2NC(=O)Nc2ccc(OCCN3CCOCC3)c3ccccc23)cc1 [formula (III), 1-[3-tert-butyl-1-p-tolyl-1H-pyrazol-5-yl]-3-[4-(2-morpholin-4-yl-ethoxy)naphthalen-1-yl]-urea]
LPS-elicited increase in plasma levels of sE-selectin (endothelial cell activation) [1]: attenuated
LPS-elicited increase in plasma levels of vWF (endothelial cell activation) [1]: attenuated
LPS-induced coagulation activation (increase in plasma prothrombin fragment F1+2 concentrations) (healthy male volunteers, high end dosing (600 mg oral) 3 h before LPS 4 ng/kg i.v., vs placebo): inhibited LPS-induced coagulation activation, both delaying and diminishing the increase in plasma F1+2 concentrations
activation of the fibrinolytic system (healthy male volunteers, oral dose 3 h before LPS 4 ng/kg i.v., tPA, PAI-1, PAPc assayed): even stronger inhibitory effect
IL-6 concentrations (subjects treated during low grade endotoxemia (LPS i.v.)): reduced IL-6 concentrations
